According to ChEMBL document CHEMBL1135949, “Pyrrolylquinoxalinediones carrying a piperazine residue represent highly potent and selective ligands to the homomeric kainate receptor GluR5” (Bioorg Med Chem Lett, 2002):
pKi: −log10 of the molar value.

What was measured:
[1] = target: Glutamate receptor ionotropic, kainate 1 (Homo sapiens, UniProt P39086); assay: Binding affinity towards cloned human GluR5 subunit stably expressed in cultured HEK293 cells using [3]H-kainate as radioligand; format: cell-based
Chain of Glutamate receptor ionotropic, kainate 1 (P39086 whole entry): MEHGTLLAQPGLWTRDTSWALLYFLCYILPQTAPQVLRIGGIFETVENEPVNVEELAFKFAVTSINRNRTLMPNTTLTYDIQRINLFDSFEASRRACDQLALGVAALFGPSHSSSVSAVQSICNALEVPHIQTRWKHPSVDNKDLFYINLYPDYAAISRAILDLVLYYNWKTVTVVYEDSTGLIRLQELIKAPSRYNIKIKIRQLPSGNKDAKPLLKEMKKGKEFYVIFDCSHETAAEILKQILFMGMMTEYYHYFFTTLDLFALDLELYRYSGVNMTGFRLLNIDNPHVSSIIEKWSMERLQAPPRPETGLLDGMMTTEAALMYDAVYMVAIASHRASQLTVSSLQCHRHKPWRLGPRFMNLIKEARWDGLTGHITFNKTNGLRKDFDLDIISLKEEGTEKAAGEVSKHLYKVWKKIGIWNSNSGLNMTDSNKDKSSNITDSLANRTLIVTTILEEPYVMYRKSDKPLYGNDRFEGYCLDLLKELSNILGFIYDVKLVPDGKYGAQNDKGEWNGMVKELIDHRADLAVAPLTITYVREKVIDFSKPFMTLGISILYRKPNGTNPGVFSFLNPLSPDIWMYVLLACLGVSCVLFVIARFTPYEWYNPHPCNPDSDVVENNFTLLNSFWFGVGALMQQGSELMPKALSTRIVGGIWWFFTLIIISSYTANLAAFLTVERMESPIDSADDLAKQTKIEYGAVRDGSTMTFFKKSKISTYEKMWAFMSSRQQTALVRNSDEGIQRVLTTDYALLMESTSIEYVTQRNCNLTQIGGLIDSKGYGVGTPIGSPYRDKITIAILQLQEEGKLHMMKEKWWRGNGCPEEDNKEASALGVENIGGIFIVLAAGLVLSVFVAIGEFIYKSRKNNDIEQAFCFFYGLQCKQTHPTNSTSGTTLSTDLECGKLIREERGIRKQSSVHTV

[2] = target: Glutamate receptor ionotropic, kainate 2 (Homo sapiens, UniProt Q13002); assay: Binding affinity for human GluR6 expressed in HEK293 cells using [3]H-kainate; format: cell-based
Chain of Glutamate receptor ionotropic, kainate 2 (Q13002 whole entry): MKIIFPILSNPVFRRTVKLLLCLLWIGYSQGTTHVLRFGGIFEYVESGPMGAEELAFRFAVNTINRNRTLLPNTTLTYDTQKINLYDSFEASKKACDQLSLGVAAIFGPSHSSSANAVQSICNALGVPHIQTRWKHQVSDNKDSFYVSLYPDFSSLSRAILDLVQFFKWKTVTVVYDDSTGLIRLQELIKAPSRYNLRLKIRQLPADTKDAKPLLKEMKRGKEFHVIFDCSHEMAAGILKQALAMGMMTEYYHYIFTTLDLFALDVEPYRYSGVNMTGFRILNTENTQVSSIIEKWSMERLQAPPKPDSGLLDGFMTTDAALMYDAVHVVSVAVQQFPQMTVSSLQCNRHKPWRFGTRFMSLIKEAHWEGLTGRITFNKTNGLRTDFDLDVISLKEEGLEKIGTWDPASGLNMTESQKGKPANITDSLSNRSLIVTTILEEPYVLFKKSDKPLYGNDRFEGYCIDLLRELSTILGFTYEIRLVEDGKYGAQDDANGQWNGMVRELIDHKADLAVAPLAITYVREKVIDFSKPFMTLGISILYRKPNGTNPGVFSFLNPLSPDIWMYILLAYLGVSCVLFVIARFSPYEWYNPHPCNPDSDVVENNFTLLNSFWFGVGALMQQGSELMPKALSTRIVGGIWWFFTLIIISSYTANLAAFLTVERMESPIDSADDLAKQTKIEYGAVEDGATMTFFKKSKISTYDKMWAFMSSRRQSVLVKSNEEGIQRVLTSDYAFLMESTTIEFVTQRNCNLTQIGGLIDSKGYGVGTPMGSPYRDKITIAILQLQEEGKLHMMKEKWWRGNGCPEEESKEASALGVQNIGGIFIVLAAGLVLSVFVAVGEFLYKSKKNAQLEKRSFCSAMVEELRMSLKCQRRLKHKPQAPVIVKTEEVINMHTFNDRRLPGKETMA

[3] = target: T1, Glutamate receptor ionotropic, kainate 5 (Homo sapiens, UniProt Q16478); assay: Binding affinity towards Kai-2 using [3]H-kainate as the radioligand
T1 sequence (Q16478 whole entry): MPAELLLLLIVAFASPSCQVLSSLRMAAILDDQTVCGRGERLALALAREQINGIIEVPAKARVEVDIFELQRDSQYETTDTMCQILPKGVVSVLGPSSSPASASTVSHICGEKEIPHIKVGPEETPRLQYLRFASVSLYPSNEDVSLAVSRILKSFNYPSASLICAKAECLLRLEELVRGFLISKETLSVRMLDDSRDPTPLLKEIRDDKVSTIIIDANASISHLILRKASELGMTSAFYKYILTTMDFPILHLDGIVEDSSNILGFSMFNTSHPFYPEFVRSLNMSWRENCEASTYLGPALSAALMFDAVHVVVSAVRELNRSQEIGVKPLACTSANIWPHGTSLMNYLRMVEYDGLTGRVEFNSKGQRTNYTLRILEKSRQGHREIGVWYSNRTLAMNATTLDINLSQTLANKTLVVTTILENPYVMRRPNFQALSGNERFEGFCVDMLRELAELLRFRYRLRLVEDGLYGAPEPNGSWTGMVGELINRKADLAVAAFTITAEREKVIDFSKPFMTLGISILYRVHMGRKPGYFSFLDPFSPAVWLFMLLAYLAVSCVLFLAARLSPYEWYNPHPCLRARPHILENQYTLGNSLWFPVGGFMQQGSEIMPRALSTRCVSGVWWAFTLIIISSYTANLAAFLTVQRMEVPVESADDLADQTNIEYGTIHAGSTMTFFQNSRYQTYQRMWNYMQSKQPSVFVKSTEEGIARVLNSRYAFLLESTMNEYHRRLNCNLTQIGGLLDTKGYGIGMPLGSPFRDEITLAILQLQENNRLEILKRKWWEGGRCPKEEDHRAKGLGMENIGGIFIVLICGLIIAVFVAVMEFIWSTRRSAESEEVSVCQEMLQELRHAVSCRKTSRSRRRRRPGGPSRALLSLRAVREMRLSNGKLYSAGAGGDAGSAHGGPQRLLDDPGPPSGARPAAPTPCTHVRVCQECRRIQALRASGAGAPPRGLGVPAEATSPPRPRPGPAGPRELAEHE

[4] = target: T1, Glutamate receptor ionotropic, kainate 5; assay: Binding affinity towards cloned human Kai-2 subunit stably expressed in cultured HEK293 cells using [3]H-kainate as radioligand; format: cell-based

Q: With O=C(O)Cn1c(=O)c(=O)[nH]c2cc([N+](=O)[O-])c(-n3ccc(C(=O)O)c3)cc21 as the compound, how does the pKi [1] read?
A: 5.85

Q: What about the pKi [2] of the same compound?
A: 5.24

Q: And the pKi [3]?
A: 4.96

Q: With O=C(O)Cn1c(=O)c(=O)[nH]c2cc([N+](=O)[O-])c(-n3ccc(CN4CCC(c5ccccc5)CC4)c3)cc21 as the compound, how does the pKi [2] read?
A: 5.44

Q: What about the pKi [4] of the same compound?
A: 4.74

Q: What does the source list for O=C(O)Cn1c(=O)c(=O)[nH]c2cc([N+](=O)[O-])c(-n3cccc3)cc21?
A: pKi [2]: 5.41; pKi [4]: 5.89

Q: How did the pKi [2] turn out when O=C(O)Cn1c(=O)c(=O)[nH]c2cc([N+](=O)[O-])c(-n3ccc(CN4CCCCC4)c3)cc21 was run?
A: 4.55

Q: What about the pKi [4] of the same compound?
A: < 4.52

Q: How did the pKi [2] turn out when O=C(O)Cn1c(=O)c(=O)[nH]c2cc([N+](=O)[O-])c(-n3ccc(CN4CCN(CCc5ccccc5)CC4)c3)cc21 was run?
A: 5.85

Q: And the pKi [4]?
A: 4.60

Q: How did the pKi [2] turn out when O=C(O)Cn1c(=O)c(=O)[nH]c2cc([N+](=O)[O-])c(-n3ccc(CNCCCc4ccccc4)c3)cc21 was run?
A: 5.21

Q: And the pKi [4]?
A: 4.70

Q: Which results are given for O=C(O)Cn1c(=O)c(=O)[nH]c2cc([N+](=O)[O-])c(-n3ccc(CN4CCN(Cc5ccccc5)CC4)c3)cc21?
A: pKi [2]: 5.39; pKi [4]: 4.70

Q: O=C(O)CCn1c(=O)c(=O)[nH]c2cc([N+](=O)[O-])c(-n3cccc3)cc21 was tested. Which pKi [1] did it give?
A: 5.62

Q: What about the pKi [2] of the same compound?
A: 5.92

Q: And the pKi [4]?
A: 4.60

Q: Which results are given for O=C(O)Cn1c(=O)c(=O)[nH]c2cc(C(F)(F)F)c(-n3ccc(CNC(=O)Nc4ccc([N+](=O)[O-])cc4)c3)cc21?
A: pKi [1]: 7.00; pKi [2]: 6.21; pKi [3]: 4.92

Q: With NCc1ccn(-c2cc3c(cc2[N+](=O)[O-])[nH]c(=O)c(=O)n3CC(=O)O)c1 as the compound, how does the pKi [2] read?
A: 5.82

Q: And the pKi [3]?
A: 5.01

Q: How did the pKi [2] turn out when CN(Cc1ccccc1)Cc1ccn(-c2cc3c(cc2[N+](=O)[O-])[nH]c(=O)c(=O)n3CCC(=O)O)c1 was run?
A: 4.64

Q: What about the pKi [4] of the same compound?
A: < 4.52
